Assays:
PI3Kδ = PI3Kδ (Homo sapiens, UniProt O00329); assay: Fluorescent (HTRF) determination of PI3 kinase enzyme activity, delta isoform; assay type: biochemical; set-up: purchased Millipore (assay kit); details: Table 1, unit printed in cell; read-out: IC50 Pi3Kδ
Text: (§1) Phosphoinositide 3 kinases (PI3K) belong to a class of lipid kinases that play a critical role in the regulation of several key cellular processes. The PI3K are capable of phosphorylating the 3-hydroxy position of phosphoinositols thereby generating second messengers involved in downstream signalling events. The homogenous time resolved fluorescence (HTRF) assay allows detection of 3,4,5-triphosphate (PIP3) formed as a result of phosphorylation of phosphotidylinositol 4,5-biphosphate (PIP2) by PI3K isoforms such as α, β, γ or δ.
(§2) PI3K isoform activity for α, β, γ or δ was determined using a PI3K human HTRF™ Assay Kit (Millipore, Billerica, Mass.) with modifications. All incubations were carried out at room temperature. Briefly, 0.5 μl of 40× inhibitor (in 100% DMSO) or 100% DMSO were added to each well of a 384-well white plate (Greiner Bio-One, Monroe, N.C.) containing 14.5 μl 1× reaction buffer /PIP2 (10 mM MgCl2, 5 mM DTT, 1.38 μM PIP2) mix with or without enzyme, followed by 5 μl/well of 400 μM ATP and incubated for an additional 30 minutes. Reaction was terminated by adding 5 μl/well stop solution (Millipore, Billerica, Mass.). […] HRTF ratio was measured on a microplate reader (BMG Labtech., Germany) at an excitation wavelength of 337 nm and emission wavelengths of 665 and 615 nm with an integration time of 400 msec counting delay of 50 msec.

Pi3K γ = Pi3K γ (Homo sapiens, UniProt P48736); assay: Fluorescent (HTRF) determination of PI3 kinase enzyme activity, gamma isoform; assay type: biochemical; set-up: purchased Millipore (assay kit); details: Table 1, unit printed in cell; read-out: IC50 Pi3K γ
Text: as §1, §2

[1] = reported at 55th ASH Annual Meeting 2013; cited from earlier work

Chain of Pi3K γ (P48736 whole entry, canonical isoform): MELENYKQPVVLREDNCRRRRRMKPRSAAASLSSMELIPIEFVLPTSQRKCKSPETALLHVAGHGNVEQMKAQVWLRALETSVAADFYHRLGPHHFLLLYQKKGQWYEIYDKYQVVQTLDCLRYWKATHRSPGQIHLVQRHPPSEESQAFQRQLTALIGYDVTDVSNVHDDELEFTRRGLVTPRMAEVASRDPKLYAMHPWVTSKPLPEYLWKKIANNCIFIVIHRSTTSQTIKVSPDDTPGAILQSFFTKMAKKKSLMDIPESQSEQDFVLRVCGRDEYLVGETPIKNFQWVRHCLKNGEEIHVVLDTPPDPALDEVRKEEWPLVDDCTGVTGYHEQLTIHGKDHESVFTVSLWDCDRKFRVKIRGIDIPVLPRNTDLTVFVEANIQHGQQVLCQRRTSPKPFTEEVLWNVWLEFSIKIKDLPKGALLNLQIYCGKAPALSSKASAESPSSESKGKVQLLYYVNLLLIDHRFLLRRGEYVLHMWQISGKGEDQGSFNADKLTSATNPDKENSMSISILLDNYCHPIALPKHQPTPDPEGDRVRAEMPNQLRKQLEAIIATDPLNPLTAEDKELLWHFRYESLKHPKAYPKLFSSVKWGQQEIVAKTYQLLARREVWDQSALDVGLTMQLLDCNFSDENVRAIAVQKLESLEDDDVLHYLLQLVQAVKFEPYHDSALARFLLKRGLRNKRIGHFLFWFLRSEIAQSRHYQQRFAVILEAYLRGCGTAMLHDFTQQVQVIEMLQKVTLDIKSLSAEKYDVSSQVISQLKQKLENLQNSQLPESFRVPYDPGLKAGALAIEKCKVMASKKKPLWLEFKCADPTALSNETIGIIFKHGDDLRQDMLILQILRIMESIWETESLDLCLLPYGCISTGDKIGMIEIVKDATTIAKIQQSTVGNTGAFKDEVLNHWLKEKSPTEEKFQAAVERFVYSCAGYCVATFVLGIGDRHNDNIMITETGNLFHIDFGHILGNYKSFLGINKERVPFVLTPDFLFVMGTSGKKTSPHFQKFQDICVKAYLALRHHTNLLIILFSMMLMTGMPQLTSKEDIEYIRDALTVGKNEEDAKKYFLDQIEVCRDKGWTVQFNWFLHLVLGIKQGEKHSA
Chain of PI3Kδ (O00329 whole entry, canonical isoform): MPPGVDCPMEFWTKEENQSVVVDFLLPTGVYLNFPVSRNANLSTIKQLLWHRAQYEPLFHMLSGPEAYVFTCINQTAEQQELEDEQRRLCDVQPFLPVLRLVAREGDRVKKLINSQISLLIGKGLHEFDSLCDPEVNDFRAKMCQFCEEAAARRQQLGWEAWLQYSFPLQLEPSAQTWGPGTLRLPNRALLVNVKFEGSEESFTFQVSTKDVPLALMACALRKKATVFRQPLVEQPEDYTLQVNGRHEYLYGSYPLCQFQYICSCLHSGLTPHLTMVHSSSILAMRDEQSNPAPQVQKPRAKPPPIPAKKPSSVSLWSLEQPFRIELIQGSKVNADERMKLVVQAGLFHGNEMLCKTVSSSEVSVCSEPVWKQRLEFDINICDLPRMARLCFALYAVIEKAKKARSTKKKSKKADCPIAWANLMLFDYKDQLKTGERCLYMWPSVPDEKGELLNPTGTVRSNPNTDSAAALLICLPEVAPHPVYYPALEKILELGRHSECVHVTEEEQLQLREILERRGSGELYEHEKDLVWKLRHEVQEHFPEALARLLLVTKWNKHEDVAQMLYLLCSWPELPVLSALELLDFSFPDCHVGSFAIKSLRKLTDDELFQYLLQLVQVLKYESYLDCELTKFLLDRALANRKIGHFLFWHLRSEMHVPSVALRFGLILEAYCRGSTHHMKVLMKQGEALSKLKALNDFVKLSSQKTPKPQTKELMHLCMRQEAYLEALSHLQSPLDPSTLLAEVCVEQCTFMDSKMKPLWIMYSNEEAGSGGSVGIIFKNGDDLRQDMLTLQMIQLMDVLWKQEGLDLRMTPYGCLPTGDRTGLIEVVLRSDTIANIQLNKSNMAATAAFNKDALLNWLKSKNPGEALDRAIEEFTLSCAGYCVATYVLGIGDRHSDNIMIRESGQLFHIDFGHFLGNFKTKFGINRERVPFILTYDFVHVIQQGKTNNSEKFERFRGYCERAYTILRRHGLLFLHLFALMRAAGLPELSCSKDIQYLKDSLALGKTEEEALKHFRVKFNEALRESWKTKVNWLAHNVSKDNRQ
Chain of PI3Kδ (P27986 whole entry partner, canonical isoform): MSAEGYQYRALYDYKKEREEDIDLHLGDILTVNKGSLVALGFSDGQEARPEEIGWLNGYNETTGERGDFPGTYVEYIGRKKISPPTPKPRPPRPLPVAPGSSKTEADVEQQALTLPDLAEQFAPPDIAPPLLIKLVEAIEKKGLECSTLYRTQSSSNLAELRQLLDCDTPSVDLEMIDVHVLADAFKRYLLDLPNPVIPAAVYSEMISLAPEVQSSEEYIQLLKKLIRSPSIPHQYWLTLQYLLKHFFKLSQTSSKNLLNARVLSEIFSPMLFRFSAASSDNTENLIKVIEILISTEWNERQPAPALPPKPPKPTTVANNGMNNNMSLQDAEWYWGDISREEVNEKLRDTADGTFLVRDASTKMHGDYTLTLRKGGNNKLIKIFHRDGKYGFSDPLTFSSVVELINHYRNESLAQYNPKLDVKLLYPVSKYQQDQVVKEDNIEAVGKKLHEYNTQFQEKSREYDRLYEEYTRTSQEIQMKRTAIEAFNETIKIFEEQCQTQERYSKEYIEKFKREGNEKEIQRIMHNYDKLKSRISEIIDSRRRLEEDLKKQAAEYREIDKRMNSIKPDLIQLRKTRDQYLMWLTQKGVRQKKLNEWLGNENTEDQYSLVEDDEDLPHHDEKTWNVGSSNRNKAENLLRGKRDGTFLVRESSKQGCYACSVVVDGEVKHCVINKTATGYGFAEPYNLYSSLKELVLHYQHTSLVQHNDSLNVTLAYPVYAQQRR

SMILES	IC50 (PI3Kδ)	IC50 (Pi3K γ)	maximum tolerated dose (MTD) [1]
CC[C@@H](Nc1ncnc2[nH]cnc12)c1oc2ccccc2c(=O)c1-c1cccc(F)c1 [Compound A2, (R)-2-(1-(9H-purin-6-ylamino)propyl)-3-(3-fluorophenyl)-4H-chromen-4-one]	> 10 µM	> 10 µM	–
C[C@H](Nc1ncnc2[nH]cnc12)c1cc2cccc(Cl)c2c(=O)n1-c1ccccc1 [IPI-45]	–	–	75 mg BID
